This note sets out measurements from patent US20070208062A1, “3-(4-(2-DIHYDROISOXAZOL-3-YLPYRIDIN-5-YL)PHENYL)-5-TRIAZOL-1-YLMETHYLOXAZOLIDIN-2-ONE DERIVATIVES AS MAO INHIBITORS FOR THE TREATMENT OF BACTERIAL INFECTIONS” (ASTRAZENECA AB, priority 2004, published 2007).

The subject of data set [1] is Streptococcus pneumoniae. The data set can be described thus: MIC, Streptococcus pneumoniae. The settings on record: agar with 5% defibrinated horse blood, 5% carbon dioxide, 48 hours. It counts as cell-based. How it is done:
(§1) The following results were obtained on a standard in-vitro test system. The activity is described in terms of the minimum inhibitory concentration (MIC) determined by the agar-dilution technique with an inoculum size of 10^4 CFU/spot. Typically, compounds are active in the range 0.01 to 256 μg/ml.
(§2) Streptococci and enterococci were tested on agar supplemented with 5% defibrinated horse blood, an inoculum of 10^4 CFU/spot and an incubation temperature of 37° C. in an atmosphere of 5% carbon dioxide for 48 hours—blood is required for the growth of some of the test organisms. Fastidious Gram negative organisms were tested in Mueller-Hinton broth, supplemented with hemin and NAD, grown aerobically for 24 hours at 37° C., and with an inoculum of 5×10^4 CFU/well.

In data set [2] the test system is Haemophilus influenzae. Nature of the data set: MIC, Haemophilus influenzae. Type of data set: cell-based. The settings on record: Mueller-Hinton broth with hemin and NAD, 24 hours, 5×10^4 CFU/well. The protocol: as §1, §2
The test system of data set [3] is Moraxella catarrhalis. Nature of the data set: MIC, Moraxella catarrhalis. The settings on record: Mueller-Hinton broth with hemin and NAD, 24 hours, 5×10^4 CFU/well. It counts as cell-based. How it is done: as §1, §2
Data set [4] concerns Staphylococcus aureus MRQR (methicillin resistant and quinolone resistant). The data set can be described thus: MIC by agar-dilution, Staphylococcus aureus MRQR. Type of data set: cell-based. To be noted: inoculum 10^4 CFU/spot, 37° C., 24 hours. The protocol: as §1
(§3) Staphylococci were tested on agar, using an inoculum of 10^4 CFU/spot and an incubation temperature of 37° C. for 24 hours—standard test conditions for the expression of methicillin resistance.

Data set [5] concerns the target T1, MAO-A (Homo sapiens, UniProt P21397).
T1 construct: made in house; host or cells: yeast
T1 sequence (P21397 1-527): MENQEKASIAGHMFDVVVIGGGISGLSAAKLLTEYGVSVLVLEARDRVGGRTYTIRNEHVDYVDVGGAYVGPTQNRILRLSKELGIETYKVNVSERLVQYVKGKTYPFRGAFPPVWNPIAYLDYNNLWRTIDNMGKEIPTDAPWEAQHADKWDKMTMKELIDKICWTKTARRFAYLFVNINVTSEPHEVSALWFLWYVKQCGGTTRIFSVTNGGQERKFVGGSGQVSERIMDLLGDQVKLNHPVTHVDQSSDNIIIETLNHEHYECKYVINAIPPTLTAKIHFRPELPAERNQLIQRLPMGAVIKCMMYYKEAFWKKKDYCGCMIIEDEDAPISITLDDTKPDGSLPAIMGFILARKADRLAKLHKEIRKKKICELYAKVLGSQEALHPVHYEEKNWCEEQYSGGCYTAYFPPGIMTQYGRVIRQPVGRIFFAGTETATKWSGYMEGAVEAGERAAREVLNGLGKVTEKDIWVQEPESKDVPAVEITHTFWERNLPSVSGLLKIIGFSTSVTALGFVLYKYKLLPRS
Nature of the data set: MAO-A standard in-vitro assay, human liver enzyme expressed in yeast. It counts as biochemical. To be noted: read-out: Ki against MAO-A. The protocol:
The activity of the compounds of the invention against MAO-A was tested using a standard in-vitro assay based on human liver enzyme expressed in yeast as described in Biochem. Biophys. Res. Commun. 1991, 181, 1084-1088.

The subject of data set [6] is Linezolid Resistant Streptococcus pneumoniae. The data set can be described thus: MIC, Linezolid Resistant Streptococcus pneumoniae. It counts as cell-based. To be noted: agar with 5% defibrinated horse blood, 5% carbon dioxide, 48 hours. The protocol:
as §1, §2

For data set [7], the system named is Staphylococcus aureus MSQS (methicillin sensitive and quinolone sensitive). The data set can be described thus: MIC by agar-dilution, Staphylococcus aureus MSQS. It counts as cell-based. To be noted: inoculum 10^4 CFU/spot, 37° C., 24 hours. The protocol: as §1, §3
The test system of data set [8] is Staphylococci, Streptococci, enterococci, fastidious Gram negative organisms. The data set can be described thus: standard in-vitro test system, antibacterial activity (MIC). The settings on record: result in words. Type of data set: cell-based.
Description: The pharmaceutically-acceptable compounds of the present invention are useful antibacterial agents having a good spectrum of activity in vitro against standard Gram-positive organisms, which are used to screen for activity against pathogenic bacteria. […] The antibacterial spectrum and potency of a particular compound may be determined in a standard test system.
as §1, §3, §2

Structures are written as SMILES. In brackets after ≈: the same amount, converted by molar mass. Structures can show the parent of a compound that is named as a salt.

Turning to `CC(=O)NCCOC[C@@H]1CC(c2ccc(-c3ccc(N4C[C@H](Cn5ccnn5)OC4=O)cc3F)cn2)=NO1` [Example 14, N-(2-{[(5S)-3-(5-{2-Fluoro-4-[(5R)-2-oxo-5-(1H-1,2,3-triazol-1-ylmethyl)-1,3-oxazolidin-3-yl]phenyl}pyridin-2-yl)-4,5-dihydroisoxazole-5-yl]methoxy}ethyl)acetamide], the melting point was 134 °C.

`O=C1OC(Cn2ccnn2)CN1c1ccc(-c2ccc(C3=NO[C@H](COCCN4CCOCC4)C3)nc2)c(F)c1` (stereo in doubt) [Example 10, (5S)-3-[3-Fluoro-4-(6-{(5S)-5-[(2-morpholin-4-ylethoxy)methyl]-4,5-dihydroisoxazole-3-yl}pyridin-3-yl)phenyl]-5-(1H-1,2,3-triazol-1-ylmethyl)-1,3-oxazolidin-2-one] displayed a melting point of 171 °C.

For the molecule `O=C(O)COC[C@@H]1CC(c2ccc(-c3ccc(N4C[C@H](Cn5ccnn5)OC4=O)cc3F)cn2)=NO1` [Example 3, {[(5S)-3-(5-{2-Fluoro-4-[(5R)-2-oxo-5-(1H-1,2,3-triazol-1-ylmethyl)-1,3-oxazolidin-3-yl]phenyl}pyridin-2-yl)-4,5-dihydroisoxazole-5-yl]methoxy}acetic acid], the melting point stood at 190 °C.

As to `CN(CCOC[C@@H]1CC(c2ccc(-c3ccc(N4C[C@H](Cn5ccnn5)OC4=O)cc3F)cn2)=NO1)CC(=O)O` [Example 20, N-(2-{[(5S)-3-(5-{2-Fluoro-4-[(5R)-2-oxo-5-(1H-1,2,3-triazol-1-ylmethyl)-1,3-oxazolidin-3-yl]phenyl}pyridin-2-yl)-4,5-dihydroisoxazole-5-yl]methoxy}ethyl)-N-methylglycine], the melting point lay within 135 to 140 °C.

In the case of `O=C1O[C@@H](Cn2ccnn2)CN1c1ccc(-c2ccc(C3=NO[C@H](COCCCO)C3)nc2)c(F)c1` [Example 7, (5R)-3-[3-Fluoro-4-(6-{(5S)-5-[(3-hydroxypropoxy)methyl]-4,5-dihydroisoxazole-3-yl}pyridin-3-yl)phenyl]-5-(1H-1,23-triazol-1-ylmethyl)-1,3-oxazolidin-2-one], the melting point was 176 °C.

In turn, `CC[C@H](C)[C@H](N)C(=O)OCCOC[C@@H]1CC(c2ccc(-c3ccc(N4C[C@H](Cn5ccnn5)OC4=O)cc3F)cn2)=NO1` (as salt: HCl) [Example 17, 2-{[(5S)-3-(5-{2-Fluoro-4-[(5R)-2-oxo-5-(1H-1,2,3-triazol-1-ylmethyl)-1,3-oxazolidin-3-yl]phenyl}pyridin-2-yl)-4,5-dihydroisoxazole-5-yl]methoxy}ethyl L-isoleucinate] came in with a melting point of 119 °C.

`O=C1O[C@@H](Cn2ccnn2)CN1c1ccc(-c2ccc(C3=NO[C@H](COCCO)C3)nc2)c(F)c1` [Example 8] came in with a melting point of 162 °C.

The molecule `CN1CCN(C(=O)COC[C@@H]2CC(c3ccc(-c4ccc(N5C[C@H](Cn6ccnn6)OC5=O)cc4F)cn3)=NO2)CC1` [Example 6, (5R)-3-{3-Fluoro-4-[6-((5S)-5-{[2-(4-methylpiperazin-1-yl)-2-oxoethoxy]methyl}-4,5-dihydroisoxazole-3-yl)pyridin-3-yl]phenyl}-5-(1H-1,23-triazol-1-ylmethyl)-1,3-oxazolidin-2-one] returned a melting point of 165 to 175 °C.

`CN(C)C(=O)COC[C@@H]1CC(c2ccc(-c3ccc(N4C[C@H](Cn5ccnn5)OC4=O)cc3F)cn2)=NO1` [Example 5, 2-{[(5S)-3-(5-{2-Fluoro-4-[(5R)-2-oxo-5-(1H-1,2,3-triazol-1-ylmethyl)-1,3-oxazolidin-3-yl]phenyl}pyridin-2-yl)-4,5-dihydroisoxazole-5-yl]methoxy}-N,N-dimethylacetamide] returned a melting point of 166 to 168 °C.

Molecule `CS(=O)(=O)NCCOC[C@@H]1CC(c2ccc(-c3ccc(N4C[C@H](Cn5ccnn5)OC4=O)cc3F)cn2)=NO1` [Example 13, N-(2-{[(5S)-3-(5-{2-Fluoro-4-[(5R)-2-oxo-5-(1H-1,2,3-triazol-1-ylmethyl)-1,3-oxazolidin-3-yl]phenyl}pyridin-2-yl)-4,5-dihydroisoxazole-5-yl]methoxy}ethyl)methanesulfonamide] came in with a melting point of 170 °C.

As for `CNC(=O)COC[C@@H]1CC(c2ccc(-c3ccc(N4C[C@H](Cn5ccnn5)OC4=O)cc3F)cn2)=NO1` [Example 4, 2-{[(5S)-3-(5-{2-Fluoro-4-[(5R)-2-oxo-5-(1H-1,2,3-triazol-1-ylmethyl)-1,3-oxazolidin-3-yl]phenyl}pyridin-2-yl)-4,5-dihydroisoxazole-5-yl]methoxy}-N-methylacetamide], the melting point was in the range of 153 to 156 °C. Further, in [1], the MIC came out at 0.06 µg/mL (≈ 0.118 µM). In [2], the MIC turned out to be 8 µg/mL (≈ 15.7 µM). In data set [3], this molecule registered an MIC of 0.5 µg/mL (≈ 0.981 µM). Also, the MIC in data set [4] stood at 0.5 µg/mL (≈ 0.981 µM). In addition, the inhibitory constant (Ki) in [5] was determined as 8 µM. Besides, in data set [6], the MIC is 1 µg/mL (≈ 1.96 µM). The molecule also yielded an MIC in data set [7] of 0.25 µg/mL (≈ 0.491 µM).

In turn, `CC(C)(C)OC(=O)COC[C@@H]1CC(c2ccc(-c3ccc(N4C[C@H](Cn5ccnn5)OC4=O)cc3F)cn2)=NO1` [Pro-drug Example 1, tert-Butyl {[(5S)-3-(5-{2-fluoro-4-[(5R)-2-oxo-5-(1H-1,2,3-triazol-1-ylmethyl)-1,3-oxazolidin-3-yl]phenyl}pyridin-2-yl)-4,5-dihydroisoxazole-5-yl]methoxy}acetate] displayed a melting point of 186 °C.

The molecule `CC(C)(O)COC[C@@H]1CC(c2ccc(-c3ccc(N4C[C@H](Cn5ccnn5)OC4=O)cc3F)cn2)=NO1` [Example 16] came in with a melting point of 180 to 187 °C.

Regarding `CN(C)CC(O)COC[C@@H]1CC(c2ccc(-c3ccc(N4C[C@H](Cn5ccnn5)OC4=O)cc3F)cn2)=NO1` (some centres unmarked) (as salt: hydrochloride) [Example 19], the melting point lay in the range of 110 to 115 °C.

The molecule `C=CCOC[C@@H]1CC(c2ccc(-c3ccc(N4C[C@H](Cn5ccnn5)OC4=O)cc3F)cn2)=NO1` [compound 2, (5R)-3-[4-(6-{(5S)-5-[(Allyloxy)methyl]-4,5-dihydroisoxazole-3-yl}pyridin-3-yl)-3-fluorophenyl]-5-(1H-1,2,3-triazol-1-ylmethyl)-1,3-oxazolidin-2-one] gave a melting point of 162 °C. Besides, the antibacterial activity result in data set [8] is recorded as “have antibacterial activity”.

With `[N-]=[N+]=NCCOC[C@@H]1CC(c2ccc(-c3ccc(N4C[C@H](Cn5ccnn5)OC4=O)cc3F)cn2)=NO1` [compound 9], the melting point is 148 °C. The antibacterial activity entry in [8] is “have antibacterial activity”.

The molecule `N#CCOC[C@@H]1CC(c2ccc(-c3ccc(N4C[C@H](Cn5ccnn5)OC4=O)cc3F)cn2)=NO1` [Example 15, {[(5S)-3-(5-{2-Fluoro-4-[(5R)-2-oxo-5-(1H-1,2,3-triazol-1-ylmethyl)-1,3-oxazolidin-3-yl]phenyl}pyridin-2-yl)-4,5-dihydroisoxazole-5-yl]methoxy}acetonitrile] came in with a melting point of 90 to 115 °C.

A word on the melting point: it is the temperature, or range, at which the solid turns liquid. Usually Ki stands for the dissociation constant of the complex between target and ligand, obtained from inhibition or displacement.
